Measurements reported in patent publication US20200316090A1, “TARGETED THERAPEUTICS” (MADRIGAL PHARMACEUTICALS, INC., priority 2012, published 2020).
Like-named read-outs stand apart in the source and are kept apart here.

Columns and labels:
[1] = Mouse plasma stability (Examples 16-18); type: in vitro ADME; conditions: for Mouse (5 μM) % Remaining 1 h (37° C.) * / Mouse (10 μM) % Remaining 1 h (37° C.) *: sum of both peaks of parent chromatogram; for Mouse (5 μM) % Remaining 1 h (37° C.) §: data from single parent peak
Procedure: This solution was used to precipitate all plasma samples in the study. 200 μL was pipetted into a 96 deepwell plate over dry ice. 10 μL of 1 mM stock in DMSO was added to a 1.5 mL microfuge tube, then 990 μL of plasma. Samples were mixed by vortex, then 50 μL of each sample was added in triplicate to a 96-well plate containing internal standard solution. This was designated the 0 hour time point sample. 250 μL of the remaining plasma sample was added to each of four 96 deepwell plates—one per time point. Samples were incubated at 37° C. with gentle shaking for 0.25, 0.5, and 1 hour. After each time point, one plate of each sample was removed from the shaker and placed on wet ice for approximately 2 minutes. 50 μL plasma aliquots (in triplicate) were added to the deepwell plate containing internal standard solution. After the last time point was extracted, the 96 deepwell plate was vortexed, then centrifuged at 2-8° C. 150 μL of supernatant was collected and 25 μL of water was added. Samples were mixed and analyzed by LC-MS/MS.
The stability of seven SDC-TRAP types in mouse plasma was measured as follows. 990 μL mouse plasma aliquots from a common stock were spiked with 10 μL of 1 mM stock of one of seven SDC-TRAP samples identified in the table below. Each sample was mixed and divided into 250 μL aliquots, each representing time points 0, 15 minutes, 30 minutes or 1 hour. At the prescribed time point, 3×50 μL samples were each mixed with 200 μL of methanol containing internal standard and held on dry ice until all time point samples were extracted. The samples collectively were vortex mixed for 1.5 minutes at 1500 rpm, then centrifuged at 4400 rpm for 10 minutes at 8° C.

[2] = Artificial membrane permeability assay (PAMPA)
Procedure: (§1) In order to test the ability SDC-TRAP molecules of the invention to enter cells, an artificial membrane permeability assay (“PAMPA”) was used. […] LC/MS was used in conjunction with PAMPA assays to determine the ability of the SDC-TRAP molecules of the invention to permeate cells.
(§2) Pre-coated PAMPA plates were warmed to room temperature for at least 30 minutes prior to adding assay components.
(§3) Stock solutions were prepared with the SDC-TRAP molecules to be tested. In order to make a working solution, either 50 μL of 100 μM Stock in DMSO+950 μL of PBS or 50 μL of 200 stock was added to 96 deep well plate, resulting in a 5 μM final concentration or a 10 μM final concentration, respectively. […] 200 μL of PBS was added into the corresponding wells of an acceptor PAMPA plates.
(§4) The acceptor plate was lowered onto the donor plate and allowed to incubate for five hours. After five hours, a 50 μL aliquot was removed from each well of each plate and added into a new 96 deep-well plate.
(§5) 100 μL of methanol containing an internal standard was added to each aliquot and analyzed by LC/MS. The internal standard was 150 ng/ml SDC-TRAP-0002.
(§6) In order to calculate the permeability for each SDC-TRAP molecule and the control molecules, the following formula was used:
Permeability (in Unit of Cm/s):
(§7) [formula] • C0=initial compound concentration in donor well (mM) • CD (t)=compound concentration in donor well at time t. (mM) • CA (t)=compound concentration in acceptor well at time t. (mM) • VD=donor well volume=0.3 mL • VA=acceptor well volume=0.2 mL • A=filter area=0.3 cm^2 • t=incubation time=18000 s (5 h)
(§8) For the data presented in the table below, peak area was used in place of concentration in the formula above.

[3] = Tissue distribution of SDC-TRAP and degradation products in tumor-bearing mice (plasma, tumor, heart); type: in vivo, Female SCID Mouse (H1975)
Procedure: A 150 ng/mL solution of SDC-TRAP-0002 in methanol was prepared using an internal spiking solution (500 μg/mL SDC-TRAP-0002 in DMSO). Using the 10 mM stock solutions of the SDC-TRAP molecule and its Hsp90i binding moiety and effector moiety in DMSO, spiking solutions were prepared at 0.025, 0.05, 0.1, 0.5, 1, 5, 10, 50, 100, 250, and 500 μM in DMSO. 5 μL of each spiking solution was added to a 96-deep well plate.
Quality control standards were prepared from 5 μL of 0.1, 1, and 10 μM calibration standard spiking solution added in triplicate into 96-deep well plate and adding 50 μL of matrix (plasma or homogenized tumor).
To prepare test samples, test plasma was diluted as needed using blank plasma. Tumor samples were pulverized in liquid nitrogen, weighed, and homogenized in PBS at 5× volume to sample weight. 50 μL of unknown plasma or homogenized tumor sample was mixed with 5 μL of DMSO. The samples were extracted by precipitating calibration standards, QC standards, and unknown samples with 200 μL of internal standard solution. The samples were mixed by vortex at room temperature for approximately 1.5 minutes, then centrifuge at 2-8° C. 150 μL of supernatant was collected and 25 μL of water added. Samples were mixed and analyzed by LC-MS/MS.
Samples of plasma, heart and tumor were excised from a euthanized mouse, homogenized in PBS at 5 times tissue weight and diluted in 5 μL DMSO/50 μL sample. Prior to analysis, 55 μL samples and calibration standards were precipitated in 200 μL methanol in 96-well plates. Samples were mixed on a vortex mixer for 1.5 minutes at 1500 rpm at room temperature, then centrifuged at 4400 rpm for 10 minutes at 8° C. 150 μL of each supernatant was transferred to a well of a new 96-well plate, and 25 μL of water was added and mixed with the sample. […] For the analysis of samples from female SCID mice, a gradient of solvent A (water/0.1% formic acid) and B (acetonitrile/0.1% formic acid) was used as in Table A below.

[4] = system: MCF-7 breast cancer cells; experiment: Mouse xenograft efficacy in an MCF-7 breast cancer model; type: in vivo, CD-1 nude mice
Procedure: MCF-7 breast cancer cells were purchased from ATCC. […] Fetal bovine serum was then added to the medium. The final concentration of fetal bovine serum was 10%. Cells were cultured at 37° C. and 5% CO2.
Mice that were not put on treatment were euthanized. Animals were sourced through CRL (Wilmington, Mass.).

[5] = PAMPA
Procedure: as §1, §2, §3, §4, §5, §6
Permeability (in Unit of Cm/s):
as §7, §8

[6] = Permeability (10^−6 cm/s), 5 h incubation, peak area used in place of concentration, first table
[7] = Permeability (cm/s), 5 h incubation, peak area used in place of concentration, first table

For `CC(C)c1cc(-c2nnc(O)n2-c2ccc(CN3CCN(C(=O)c4ccc(CCc5c[nH]c6nc(N)[nH]c(=O)c56)cc4)CC3)cc2)c(O)cc1O` [SDC-TRAP-0068, 2-amino-5-(4-(4-(4-(3-(2,4-dihydroxy-5-isopropylphenyl)-5-hydroxy-4H-1,2,4-triazol-4-yl)benzyl)piperazine-1-carbonyl)phenethyl)-3H-pyrrolo[2,3-d]pyrimidin-4(7H)-one], the “% Remaining (l h)” value ([1]; mouse, plasma, 1 h, 10 µM) was 96.5%.
In the case of `CCc1c2c(nc3ccc(OC(=O)N4CCC(CCn5ccc6cc(-n7c(O)nnc7-c7cc(C(C)C)c(O)cc7O)ccc65)CC4)cc13)-c1cc3c(c(=O)n1C2)COC(=O)[C@]3(O)CC` [SDC-TRAP-0063, 4,11-diethyl-4-hydroxy-3,14-dioxo-3,4,12,14-tetrahydro-1H-pyrano[3′,4′:6,7]indolizino[1,2-b]quinolin-9-yl 4-(2-(5-(3-(2,4-dihydroxy-5-isopropylphenyl)-5-hydroxy-4H-1,2,4-triazol-4-yl)-1H-indol-1-yl)ethyl)piperidine-1-carboxylate], the “Mass Retention (%)” value ([2]; same protocol, second table) is reported as 18.7%, the Kp at 1 h ([3]; female, SCID, mouse, in vivo) is reported as 0.17 and the Kp at 6 h ([3]; female, SCID, mouse, in vivo) is reported as 2.25. It also gave a Kp at 24 h ([3]; female, SCID, mouse, in vivo) of 20.4, a Kp at 48 h ([3]; female, SCID, mouse, in vivo) of 6.85 and a Kp at […] ([3]; female, SCID, mouse, in vivo) of 0.01. The concentration at 1 h ([3]; female, SCID, mouse, in vivo) was 52900 nM, the concentration at 6 h ([3]; female, SCID, mouse, in vivo) was 4000 nM and the concentration at 24 h ([3]; female, SCID, mouse, in vivo) was 359 nM. The concentration at 48 h ([3]; female, SCID, mouse, in vivo) was 1110 nM, the “Tumor Conc.” value ([3]; female, SCID, mouse, in vivo, 1 h) was 9.12 nmol/g of tissue and the “Tumor Conc.” value ([3]; female, SCID, mouse, in vivo, 6 h) was 8.98 nmol/g of tissue. The “Tumor Conc.” value ([3]; female, SCID, mouse, in vivo, 24 h) was 7.32 nmol/g of tissue, the “Tumor Conc.” value ([3]; female, SCID, mouse, in vivo, 48 h) was 7.60 nmol/g of tissue and the “selective targeting of tumor (tissue distribution in plasma, tumor and heart)” value ([3]; mouse, in vivo) was “selectively targets and accumulates in tumor cells”. The “suppression of increase in tumor volume” value ([4]; 150 mg/kg/1×wk versus 100 mg/kg/1×wk (FIG. 8)) was “appears to prolong the suppression of increase in tumor volume compared to a lower dose (100 mg/kg/1×wk)” and the “tumor growth suppression versus comparators” value ([4]; either dose (150 or 100 mg/kg/1×wk) (FIG. 8)) was “greater tumor growth suppression than effector moiety irinotecan alone, or unconjugated binding moiety ganetespib and effector moiety irinotecan administered together”.
For `CCc1c2c(nc3ccc(OC(=O)N(C)CCCCN4CCN(Cc5ccc(-n6c(O)nnc6-c6cc(C(C)C)c(O)cc6O)cc5)CC4)cc13)-c1cc3c(c(=O)n1C2)COC(=O)C3(O)CC` (centres unmarked) [SDC-TRAP-0044, 4,11-diethyl-4-hydroxy-3,14-dioxo-3,4,12,14-tetrahydro-1H-pyrano[3 ‘,4’:6,7]indolizino[1,2-b]quinolin-9-yl (4-(4-(4-(3-(2,4-dihydroxy-5-isopropylphenyl)-5-hydroxy-4H-1,2,4-triazol-4-yl)benzyl)piperazin-1-yl)butyl)(methyl)carbamate], the “Mouse (5 μM) % Remaining 1 h (37° C.) *” value ([1]; 1 h) was 50%, the “Mouse (5 μM) % Remaining 19 h (37° C.)” value [1] was 41% and the “Mouse (10 μM) % Remaining 1 h (37° C.) *” value ([1]; 1 h) was 61%.
In the case of `CC(C)c1cc(-c2nnc(O)n2-c2ccc3c(ccn3CCNC(=O)CCCCCNC(=O)CCCC[C@H]3SC[C@H]4NC(=O)N[C@H]43)c2)c(O)cc1O` [SDC-TRAP-0234], the “Mass Retention (%)” value [5] is reported as 9.56%, the “Permeability” value [5] is reported as 0.0123 ×10⁻⁶ cm/s and the “Permeability (10^−6 cm/s)” value [5] is reported as 0.0123 10^−6 cm/s.
For `CCc1c2c(nc3ccc(O)cc13)-c1cc3c(c(=O)n1C2)COC(=O)C3(CC)OC(=O)N(C)CCOCCn1ccc2cc(-n3c(O)nnc3-c3cc(C(C)C)c(O)cc3O)ccc21` (centres unmarked) [SDC-TRAP-0037, 4,11-diethyl-9-hydroxy-3,14-dioxo-3,4,12,14-tetrahydro-1H-pyrano[3′,4′:6,7]indolizino[1,2-b]quinolin-4-yl (2-(2-(5-(3-(2,4-dihydroxy-5-isopropylphenyl)-5-hydroxy-4H-1,2,4-triazol-4-yl)-1H-indol-1-yl)ethoxy)ethyl) (methyl)carbamate], the “Mouse (5 μM) % Remaining 1 h (37° C.) *” value ([1]; 1 h) was 67%, the “Mouse (5 μM) % Remaining 19 h (37° C.)” value [1] was 6% and the “Mouse (10 μM) % Remaining 1 h (37° C.) *” value ([1]; 1 h) was 95%.
For `CCc1c2c(nc3ccc(OC(=O)N4CCN(Cc5ccc(-n6c(O)nnc6-c6cc(C(C)C)c(O)cc6O)cc5)CC4)cc13)-c1cc3c(c(=O)n1C2)COC(=O)C3(O)CC` (centres unmarked) [SDC-TRAP-0046, 4,11-diethyl-4-hydroxy-3,14-dioxo-3,4,12,14-tetrahydro-1H-pyrano[3′,4′:6,7]indolizino[1,2-b]quinolin-9-yl 4-(4-(3-(2,4-dihydroxy-5-isopropylphenyl)-5-hydroxy-4H-1,2,4-triazol-4-yl)benzyl)piperazine-1-carboxylate], the Papp at 5 h [2] was 0.0122 ×10⁻⁶ cm/s, the “Mass Retention (%)” value ([2]; same protocol, second table) was 88.1% and the “Permeability (10^−6 cm/s)” value ([2]; same protocol, second table) was 0.0122 10^−6 cm/s. For the same compound, the concentration at 12 h ([3]; female, SCID, mouse, in vivo, tissue distribution of SDC-TRAP-0046, 12 h, read-out: Plasma Conc.) was 54.2 nM, the Kp at 12 h ([3]; female, SCID, mouse, in vivo, tissue distribution of SDC-TRAP-0046, 12 h, read-out: Tumor/Plasma Ratio) was 40.3 and the “Mouse (5 μM) % Remaining 1 h (37° C.) §” value ([1]; 1 h) was 62%. The “Mouse (5 μM) % Remaining 1 h (37° C.) *” value ([1]; 1 h) was 65%, the “Mouse (5 μM) % Remaining 19 h (37° C.)” value [1] was 37% and the “Mouse (10 μM) % Remaining 1 h (37° C.) *” value ([1]; 1 h) was 57%.
With `CCc1c2c(nc3ccc(OC(=O)N4CCN(c5ccc(-n6c(O)nnc6-c6cc(C(C)C)c(O)cc6O)cc5)CC4)cc13)-c1cc3c(c(=O)n1C2)COC(=O)C3(O)CC` (centres unmarked) [SDC-TRAP-0045, 4,11-diethyl-4-hydroxy-3,14-dioxo-3,4,12,14-tetrahydro-1H-pyrano[3′,4′:6,7]indolizino[1,2-b]quinolin-9-yl 4-(4-(3-(2,4-dihydroxy-5-isopropylphenyl)-5-hydroxy-4H-1,2,4-triazol-4-yl)phenyl)piperazine-1-carboxylate] the “Mouse (5 μM) % Remaining 1 h (37° C.) §” value ([1]; 1 h) was 72%, the “Mouse (5 μM) % Remaining 1 h (37° C.) *” value ([1]; 1 h) was 77% and the “Mouse (5 μM) % Remaining 19 h (37° C.)” value [1] was 50%. The “Mouse (10 μM) % Remaining 1 h (37° C.) *” value ([1]; 1 h) was 45%.
In the case of `CCc1c2c(nc3ccc(OC(=O)N(C)CCOCCn4ccc5cc(-n6c(O)nnc6-c6cc(C(C)C)c(O)cc6O)ccc54)cc13)-c1cc3c(c(=O)n1C2)COC(=O)C3(O)CC` (centres unmarked) [SDC-TRAP-0029, 4,11-diethyl-4-hydroxy-3,14-dioxo-3,4,12,14-tetrahydro-1H-pyrano[3′,4′:6,7]indolizino[1,2-b]quinolin-9-yl(2-(2-(5-(3-(2,4-dihydroxy-5-isopropylphenyl)-5-hydroxy-4H-1,2,4-triazol-4-yl)-1H-indol-1-yl)ethoxy)ethyl)(methyl)carbamate], the Papp at 5 h [2] is reported as 0.00646 ×10⁻⁶ cm/s, the “Mass Retention (%)” value ([2]; same protocol, second table) is reported as 84.0% and the “Permeability (10^−6 cm/s)” value ([2]; same protocol, second table) is reported as 0.00646 10^−6 cm/s. The “Mouse (5 μM) % Remaining 1 h (37° C.) §” value ([1]; 1 h) was 43%, the “Mouse (5 μM) % Remaining 1 h (37° C.) *” value ([1]; 1 h) was 46% and the “Mouse (5 μM) % Remaining 19 h (37° C.)” value [1] was 29%. The “Mouse (10 μM) % Remaining 1 h (37° C.) *” value ([1]; 1 h) was 47%.
For `CCNC(=O)c1nnc(-c2cc(C(C)C)c(O)cc2O)n1-c1ccc(Oc2ccc(C(=O)N3CCC(C(=O)OC4(CC)C(=O)OCc5c4cc4n(c5=O)Cc5c-4nc4ccc(O)cc4c5CC)CC3)cc2)cc1` (centres unmarked) [SDC-TRAP-0154, 4,11-Diethyl-9-hydroxy-3,14-dioxo-3,4,12,14-tetrahydro-1H-pyrano[3′,4′:6,7]indolizino[1,2-b]quinolin-4-yl 1-(4-(4-(3-(2,4-dihydroxy-5-isopropylphenyl)-5-(ethylcarbamoyl)-4H-1,2,4-triazol-4-yl)phenoxy)benzoyl)piperidine-4-carboxylate], the “Mass Retention (%)” value ([2]; same protocol, second table) was 10.3%, the Kp ([3]; female, SCID, mouse, in vivo, tissue distribution of SDC-TRAP-0154, 6 h, read-out: Tumor/Plasma Ratio) was 0.44 and the Kp ([3]; female, SCID, mouse, in vivo, tissue distribution of SDC-TRAP-0154, 24 h, read-out: Tumor/Plasma Ratio) was 2.68. For the same compound, the Kp ([3]; female, SCID, mouse, in vivo, tissue distribution of SDC-TRAP-0154, 48 h, read-out: Tumor/Plasma Ratio) was 26.8, the “Plasma Conc.” value ([3]; tissue distribution of SDC-TRAP-0154, 1 h) was 215000 nM and the “Tumor Conc.” value ([3]; tissue distribution of SDC-TRAP-0154, 24 h) was 0.115 nmol/g of tissue. For the same compound, the “Tumor Conc.” value ([3]; tissue distribution of SDC-TRAP-0154, 48 h) was 0.0921 nmol/g of tissue.
In the case of `Nc1cccc2c1CN(C1CCC(=O)NC1=O)C2=O` (centres unmarked) [Lenalidomide, lenalidomide, reference compound], the “Mass Retention (%)” value ([2]; 5 h incubation, first table) is reported as 26.0%, the Papp at 5 h [2, 6] is reported as 0.062 ×10⁻⁶ cm/s and the Papp at 5 h [2, 7] is reported as 0.062 ×10⁻⁶ cm/s. For the same compound, the Kp at 1 h ([3]; female, SCID, mouse, in vivo) was 11.9 and the Kp at […] ([3]; female, SCID, mouse, in vivo) was 0.449.
With `CC(C)c1cc(-c2nnc(O)n2-c2ccc3c(ccn3CCNC(=O)CCCC[C@@H]3SC[C@@H]4NC(=O)N[C@@H]43)c2)c(O)cc1O` [SDC-TRAP-0233] the “Mass Retention (%)” value [5] was 10.9%, the “Permeability” value [5] was 0.021 ×10⁻⁶ cm/s and the “Permeability (10^−6 cm/s)” value [5] was 0.021 10^−6 cm/s.
For `CCNC(=O)c1nnc(-c2cc(C(C)C)c(O)cc2O)n1-c1ccc(CN2CCC(C(=O)N[C@@H](CC(C)C)C(=O)Nc3cccc4c3CN(C3CCC(=O)NC3=O)C4=O)CC2)cc1` (stereo partly drawn) [SDC-TRAP-0193, 1-(4-(3-(2,4-dihydroxy-5-isopropylphenyl)-5-(ethylcarbamoyl)-4H-1,2,4-triazol-4-yl)benzyl)-N-((2S)-1-((2-(2,6-dioxopiperidin-3-yl)-1-oxoisoindolin-4-yl)amino)-4-methyl-1-oxopentan-2-yl)piperidine-4-carboxamide], the “Mass Retention (%)” value ([2]; 5 h incubation, first table) was 10.2%, the Papp at 5 h [2, 6] was 0.00859 ×10⁻⁶ cm/s and the Papp at 5 h [2, 7] was 0.00859 ×10⁻⁶ cm/s.
With `CC(C)c1cc(-c2nnc(O)n2-c2ccc3c(ccn3CCN(C)C(=O)CCCC(=O)Nc3cccc4c3CN(C3CCC(=O)NC3=O)C4=O)c2)c(O)cc1O` (centres unmarked) [SDC-TRAP-0018, N1-(2-(5-(3-(2,4-dihydroxy-5-isopropylphenyl)-5-hydroxy-4H-1,2,4-triazol-4-yl)-1H-indol-1-yl)ethyl)-N5-(2-(2,6-dioxopiperidin-3-yl)-1-oxoisoindolin-4-yl)-N1-methylglutaramide] the “Mass Retention (%)” value ([2]; 5 h incubation, first table) was 14.7%, the Papp at 5 h [2, 6] was 0.0268 ×10⁻⁶ cm/s and the Papp at 5 h [2, 7] was 0.0268 ×10⁻⁶ cm/s.
